One assay relates to TT cells. Kind of assay: TT Cell Proliferation Assay (WST-8, 8 days). Type of assay: cell-based. The settings on record: Homo sapiens, 192 h, growth inhibition in TT cells, read-out: TT Cellular Activity. The method in brief:
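TT cells, 6,000/well in RPMI-1640 with 10% FBS, attached 24 h, then exposed to compound at 5 μM down to 0.0005 μM final (0.5% DMSO) for 8 days at 37 °C. WST-8 added for 5 h, absorbance at 450 nm. IC50 calculated from the dilution series.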
(In general: Tetrazolium dyes change colour on reduction, which living cells bring about.)

Another assay addresses T1, human KDR kinase (Homo sapiens, UniProt P35968).
T1 construct: purchased Carna 08-191
Nature of the assay: KDR Kinase Assay (LanthaScreen TR-FRET enzymatic assay). Type of assay: biochemical. As to conditions: 1.2 nM KDR, 92 μM ATP. In a few lines:
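Recombinant human KDR (1.2 nM) preincubated 15 min at room temperature with compound, then reacted with 3 μM FAM-P22 peptide and 92 μM ATP in 50 mM HEPES pH 7.5 for 1 h at 28° C. EDTA stop, then TR-FRET acceptor/donor ratio read; percent of 1% DMSO control fitted sigmoidally for IC50.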
Background: Time-resolved FRET reads energy transfer from a long-lived donor to a nearby acceptor.

The next assay deals with T2, human RET kinase (Homo sapiens, UniProt P07949).
T2 construct: purchased Carna 08-159
Kind of assay: RET Kinase Assay (LanthaScreen TR-FRET enzymatic assay). The assay is classed as biochemical. The settings on record: 7 nM RET, 23 μM ATP. The method in brief:
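Human RET (7 nM) preincubated 15 min with compound in 50 mM HEPES pH 7.5, 0.0015% Brij-35, then reacted with 3 μM FAM-P2 peptide and 23 μM ATP for 1 h at 28° C.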

For another assay, the target named is T3, BAF3-KIF5B-RET cells (Homo sapiens, UniProt P07949).
T3 construct: fused on or other part: P33176 (Kinesin-1 heavy chain)
Kind of assay: BAF3-KIF5B-RET Cell proliferation assay (CellTiter-Glo, 72 hours). The assay is classed as cell-based. As to conditions: growth inhibition, read-out: BA/F3-KIF5B-RET Cellular activity. In a few lines:
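Cells seeded at 2,000/well in RPMI-1640 with 10% FBS and left 24 h at 37 °C, then exposed 72 h to nine compound levels (final 1 μM down to 0.00015 μM, 0.1% DMSO). CellTiter-Glo luminescence gave viability versus DMSO wells, from which IC50 was fitted.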
A general note: In ATP-based viability assays light output follows the ATP content of the culture.

Molecules are shown by their SMILES. Read-outs that look alike come from different tables or passages of the source.

The values below come from patent publication US20220220128A1, “HETEROCYCLIC COMPOUNDS AS KINASE INHIBITORS, COMPOSITIONS COMPRISING THE HETEROCYCLIC COMPOUND, AND METHODS OF USE THEREOF” (JS Innopharm (Shanghai) Ltd, priority 2019, published 2022).

T3 sequence (P07949 whole entry, change not shown, the tested form may be a part): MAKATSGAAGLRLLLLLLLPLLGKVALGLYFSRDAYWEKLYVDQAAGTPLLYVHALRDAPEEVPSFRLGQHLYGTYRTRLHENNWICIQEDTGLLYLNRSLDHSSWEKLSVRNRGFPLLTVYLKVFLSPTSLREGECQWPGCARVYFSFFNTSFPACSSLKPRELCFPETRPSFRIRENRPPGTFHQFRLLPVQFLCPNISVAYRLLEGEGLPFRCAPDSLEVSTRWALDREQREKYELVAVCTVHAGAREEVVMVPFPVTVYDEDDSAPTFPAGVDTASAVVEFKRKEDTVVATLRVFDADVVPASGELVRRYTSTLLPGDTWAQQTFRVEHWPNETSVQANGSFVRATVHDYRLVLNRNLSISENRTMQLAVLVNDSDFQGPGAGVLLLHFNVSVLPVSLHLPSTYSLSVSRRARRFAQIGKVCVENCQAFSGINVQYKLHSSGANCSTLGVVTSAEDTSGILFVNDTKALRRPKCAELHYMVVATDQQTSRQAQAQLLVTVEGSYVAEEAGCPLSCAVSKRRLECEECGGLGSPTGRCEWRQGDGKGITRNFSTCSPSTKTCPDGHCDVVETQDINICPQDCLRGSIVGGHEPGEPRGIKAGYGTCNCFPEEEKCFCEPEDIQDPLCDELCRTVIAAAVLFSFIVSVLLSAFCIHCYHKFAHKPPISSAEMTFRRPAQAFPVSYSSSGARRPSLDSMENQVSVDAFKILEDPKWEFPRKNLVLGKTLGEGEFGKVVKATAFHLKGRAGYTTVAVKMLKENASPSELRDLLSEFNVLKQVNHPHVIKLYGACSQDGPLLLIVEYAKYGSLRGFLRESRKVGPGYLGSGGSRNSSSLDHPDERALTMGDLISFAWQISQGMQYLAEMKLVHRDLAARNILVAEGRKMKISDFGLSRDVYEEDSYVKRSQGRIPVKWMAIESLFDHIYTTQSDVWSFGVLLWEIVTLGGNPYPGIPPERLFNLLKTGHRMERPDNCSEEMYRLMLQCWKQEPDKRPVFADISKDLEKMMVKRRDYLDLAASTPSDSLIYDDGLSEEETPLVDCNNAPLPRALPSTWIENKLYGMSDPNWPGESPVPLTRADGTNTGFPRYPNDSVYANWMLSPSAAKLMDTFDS
T2 sequence (P07949 29-1114): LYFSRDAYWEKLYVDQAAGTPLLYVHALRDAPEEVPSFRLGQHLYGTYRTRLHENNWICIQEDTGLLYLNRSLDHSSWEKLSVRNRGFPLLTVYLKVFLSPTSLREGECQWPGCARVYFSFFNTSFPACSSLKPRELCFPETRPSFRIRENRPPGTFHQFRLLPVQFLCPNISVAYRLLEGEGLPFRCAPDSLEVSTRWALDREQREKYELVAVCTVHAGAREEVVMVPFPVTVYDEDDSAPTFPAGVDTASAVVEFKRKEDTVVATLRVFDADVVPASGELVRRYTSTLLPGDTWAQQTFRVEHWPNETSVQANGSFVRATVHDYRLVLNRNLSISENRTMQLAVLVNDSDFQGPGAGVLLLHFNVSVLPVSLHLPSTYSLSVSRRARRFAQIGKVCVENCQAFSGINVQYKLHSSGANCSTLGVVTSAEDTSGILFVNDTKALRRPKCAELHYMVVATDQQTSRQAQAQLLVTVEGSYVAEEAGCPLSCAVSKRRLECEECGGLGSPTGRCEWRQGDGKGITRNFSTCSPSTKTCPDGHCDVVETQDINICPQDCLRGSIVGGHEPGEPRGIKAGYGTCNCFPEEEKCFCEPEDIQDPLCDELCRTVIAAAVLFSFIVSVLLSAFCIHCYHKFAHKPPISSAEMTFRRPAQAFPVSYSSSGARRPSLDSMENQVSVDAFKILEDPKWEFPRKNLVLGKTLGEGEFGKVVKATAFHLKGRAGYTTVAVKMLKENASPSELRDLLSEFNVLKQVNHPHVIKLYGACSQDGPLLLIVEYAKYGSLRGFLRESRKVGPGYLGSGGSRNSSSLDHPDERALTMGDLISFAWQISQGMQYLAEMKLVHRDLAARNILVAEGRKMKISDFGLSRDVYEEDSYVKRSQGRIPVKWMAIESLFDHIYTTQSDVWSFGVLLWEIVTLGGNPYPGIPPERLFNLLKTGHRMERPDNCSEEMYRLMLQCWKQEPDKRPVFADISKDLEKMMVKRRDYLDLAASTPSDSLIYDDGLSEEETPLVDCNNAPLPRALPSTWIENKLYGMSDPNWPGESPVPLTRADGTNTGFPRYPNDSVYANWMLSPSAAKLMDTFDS
T1 sequence (P35968 20-1356): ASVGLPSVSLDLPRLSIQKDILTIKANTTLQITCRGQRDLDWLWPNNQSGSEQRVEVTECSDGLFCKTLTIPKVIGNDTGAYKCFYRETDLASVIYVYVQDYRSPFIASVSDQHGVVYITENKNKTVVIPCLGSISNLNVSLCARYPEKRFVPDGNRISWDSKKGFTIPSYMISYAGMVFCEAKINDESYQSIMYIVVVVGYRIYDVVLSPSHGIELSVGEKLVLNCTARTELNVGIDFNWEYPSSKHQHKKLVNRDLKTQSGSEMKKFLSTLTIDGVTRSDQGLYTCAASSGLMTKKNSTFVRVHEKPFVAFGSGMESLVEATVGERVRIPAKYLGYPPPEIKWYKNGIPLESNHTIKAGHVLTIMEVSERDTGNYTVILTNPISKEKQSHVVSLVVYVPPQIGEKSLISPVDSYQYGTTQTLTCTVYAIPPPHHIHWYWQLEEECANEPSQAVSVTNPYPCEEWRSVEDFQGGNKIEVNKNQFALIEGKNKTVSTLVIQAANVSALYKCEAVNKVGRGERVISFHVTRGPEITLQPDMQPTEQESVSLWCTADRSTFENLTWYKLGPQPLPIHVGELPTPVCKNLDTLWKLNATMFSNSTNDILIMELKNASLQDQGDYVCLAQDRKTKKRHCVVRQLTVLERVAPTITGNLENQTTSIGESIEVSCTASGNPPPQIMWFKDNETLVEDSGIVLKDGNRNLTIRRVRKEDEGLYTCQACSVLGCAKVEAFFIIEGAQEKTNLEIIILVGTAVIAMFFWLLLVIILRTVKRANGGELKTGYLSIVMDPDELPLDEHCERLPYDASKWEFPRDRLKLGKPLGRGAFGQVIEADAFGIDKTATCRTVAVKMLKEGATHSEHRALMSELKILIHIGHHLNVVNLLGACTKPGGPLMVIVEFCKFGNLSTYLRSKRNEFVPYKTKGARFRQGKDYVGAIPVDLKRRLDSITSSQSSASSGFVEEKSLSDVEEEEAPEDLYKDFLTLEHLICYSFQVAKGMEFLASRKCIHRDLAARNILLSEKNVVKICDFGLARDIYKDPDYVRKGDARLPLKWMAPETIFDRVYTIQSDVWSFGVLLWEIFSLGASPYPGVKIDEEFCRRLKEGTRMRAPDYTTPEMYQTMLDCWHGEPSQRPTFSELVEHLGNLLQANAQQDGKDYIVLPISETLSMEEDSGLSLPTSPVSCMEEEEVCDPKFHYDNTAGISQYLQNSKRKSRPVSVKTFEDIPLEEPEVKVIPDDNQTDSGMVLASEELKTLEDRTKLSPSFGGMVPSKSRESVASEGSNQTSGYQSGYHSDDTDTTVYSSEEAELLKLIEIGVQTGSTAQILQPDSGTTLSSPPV

`COc1ccc(CN[C@]2(C)C[C@H]3CN(c4cnc(-c5cc(-c6cnn(C)c6)cn6ncc(C#N)c56)cn4)C[C@H]3C2)cn1` [Example 101, 4-(5-((3aR,5s,6aS)-5-(((6-methoxypyridin-3-yl)methyl)amino)-5-methylhexahydrocyclopenta[c]pyrrol-2(1H)-yl)pyrazin-2-yl)-6-(1-methyl-1H-pyrazol-4-yl)pyrazolo[1,5-a]pyridine-3-carbonitrile]: the IC50 with TT cells (TT) is 50 to 100 nM; on human KDR kinase, 50 to 100 nM; at human RET kinase, not above 10 nM. Moreover, the GI50 at BAF3-KIF5B-RET cells fell in the range of 50 to 100 nM.

For `CC(C)(O)COc1cc(-c2ccc(N3C4CC5CC3CC(NC(=O)c3ncccc3F)(C5)C4)nc2)c2c(C#N)cnn2c1` [Example 137, N-((1R,3S,5s,7s)-2-(5-(3-cyano-6-(2-hydroxy-2-methylpropoxy)pyrazolo[1,5-a]pyridin-4-yl)pyridin-2-yl)-2-azaadamantan-5-yl)-3-fluoropicolinamide], the IC50 was not above 10 nM in the assay with TT cells (TT), 50 to 100 nM against human KDR kinase and not above 10 nM on human RET kinase. On BAF3-KIF5B-RET cells, the GI50 is not above 10 nM.

In the case of `Cn1cc(-c2cc(-c3ccc(N4C[C@@H]5[C@@H](CNC(=O)c6ncccc6Cl)[C@@H]5C4)nc3)c3c(C#N)cnn3c2)cn1` [Example 73, 3-chloro-N-(((1R,5S,6s)-3-(5-(3-cyano-6-(1-methyl-1H-pyrazol-4-yl)pyrazolo[1,5-a]pyridin-4-yl)pyridin-2-yl)-3-azabicyclo[3.1.0]hexan-6-yl)methyl)picolinamide], the IC50 in the assay with TT cells (TT), at human KDR kinase and at human RET kinase was not above 10 nM each time. The GI50 on BAF3-KIF5B-RET cells was not above 10 nM.

As for `CC(C)(O)COc1cc(-c2ccc(N3C[C@H]4CN(C(=O)c5ncccc5Cl)C[C@H]4C3)nc2)c2c(C#N)cnn2c1` [Example 7, 4-(6-((3aR,6aS)-5-(3-chloropicolinoyl)hexahydropyrrolo[3,4-c]pyrrol-2(1H)-yl)pyridin-3-yl)-6-(2-hydroxy-2-methylpropoxy)pyrazolo[1,5-a]pyridine-3-carbonitrile], the results for the IC50 with TT cells (TT), on human KDR kinase and on human RET kinase were not above 10 nM, more than 100 nM and not above 10 nM, respectively. The GI50 on BAF3-KIF5B-RET cells is 50 to 100 nM.

Consider `Cn1cc(-c2cc(-c3ccc(N4C[C@H]5CN(C(=O)c6ncccc6Cl)C[C@H]5C4)nc3)c3c(C#N)cnn3c2)cn1` [Example 4, 4-(6-((3aR,6aS)-5-(3-chloropicolinoyl)hexahydropyrrolo[3,4-c]pyrrol-2(1H)-yl)pyridin-3-yl)-6-(1-methyl-1H-pyrazol-4-yl)pyrazolo[1,5-a]pyridine-3-carbonitrile], for which the figures for the IC50 with TT cells (TT), at human KDR kinase and against human RET kinase were not above 10 nM, 10 to 50 nM and not above 10 nM, respectively. Besides, on BAF3-KIF5B-RET cells, the GI50 is not above 10 nM.

Consider `Cn1cc(-c2cc(-c3ccc(N4C[C@@H]5C[C@@](C)(NC(=O)c6ncccc6Cl)C[C@@H]5C4)nc3)c3c(C#N)cnn3c2)cn1` [Example 55, 3-chloro-N-((3aR,5s,6aS)-2-(5-(3-cyano-6-(1-methyl-1H-pyrazol-4-yl)pyrazolo[1,5-a]pyridin-4-yl)pyridin-2-yl)-5-methyloctahydro-cyclopenta[c]pyrrol-5-yl)picolinamide], for which the IC50 in the assay with TT cells (TT), against human KDR kinase and on human RET kinase was not above 10 nM each time. For the same compound, the GI50 on BAF3-KIF5B-RET cells is not above 10 nM.

Regarding `COc1ccc(CN2C[C@@H]3CN(c4ccc(-c5cc(-c6cnn(C)c6)cn6ncc(C#N)c56)cn4)C[C@@H]3C2)cn1` [Example 12, 4-(6-((3aR,6aS)-5-((6-methoxypyridin-3-yl)methyl)hexahydropyrrolo[3,4-c]pyrrol-2(1H)-yl)pyridin-3-yl)-6-(1-methyl-1H-pyrazol-4-yl)pyrazolo[1,5-a]pyridine-3-carbonitrile], the IC50 with TT cells was 10 to 50 nM; against human KDR kinase, 10 to 50 nM; against human RET kinase, not above 10 nM. On BAF3-KIF5B-RET cells, the GI50 was not above 10 nM.

`Cn1cc(-c2cc(-c3ccc(N4C[C@@H]5[C@H](C4)[C@H]5NS(=O)(=O)c4c(F)cccc4Cl)nc3)c3c(C#N)cnn3c2)cn1` [Example 46, 2-chloro-N-((1R,5S,6s)-3-(5-(3-cyano-6-(1-methyl-1H-pyrazol-4-yl)pyrazolo[1,5-a]pyridin-4-yl)pyridin-2-yl)-3-azabicyclo[3.1.0]hexan-6-yl)-6-fluorobenzene-sulfonamide]: the IC50 in the assay on TT cells (TT), at human KDR kinase and against human RET kinase was not above 10 nM in each case. For the same compound, the GI50 on BAF3-KIF5B-RET cells is not above 10 nM.

In the case of `Cn1cc(-c2cc(-c3ccc(N4C5CC6CC4CC(N)(C6)C5)nc3)c3c(C#N)cnn3c2)cn1` [Example 181, 4-(6-((1R,3S,5s,7s)-5-amino-2-azaadamantan-2-yl)pyridin-3-yl)-6-(1-methyl-1H-pyrazol-4-yl)pyrazolo[1,5-a]pyridine-3-carbonitrile], the IC50 with TT cells (TT), at human KDR kinase and on human RET kinase was not above 10 nM each time. Moreover, the GI50 on BAF3-KIF5B-RET cells fell in the range of 10 to 50 nM.

With `C[C@@]1(NC(=O)c2ncccc2Cl)C[C@H]2CN(c3ccc(-c4cc(OCC5CNCCO5)cn5ncc(C#N)c45)cn3)C[C@H]2C1` (stereo partly shown) [Example 53], the IC50 in the assay on TT cells (TT) was not above 10 nM; against human KDR kinase, 10 to 50 nM; at human RET kinase, not above 10 nM. For the same compound, the GI50 on BAF3-KIF5B-RET cells was not above 10 nM.

As for `CC(C)(O)COc1cc(-c2ccc(N3C[C@@H]4[C@H](C3)[C@H]4NC(=O)c3ncccc3Cl)nc2)c2c(C#N)cnn2c1` [Example 37, 3-chloro-N-((1R,5S,6s)-3-(5-(3-cyano-6-(2-hydroxy-2-methylpropoxy)pyrazolo[1,5-a]pyridin-4-yl)pyridin-2-yl)-3-azabicyclo[3.1.0]hexan-6-yl)picolinamide], the IC50 was 50 to 100 nM in the assay with TT cells (TT), more than 100 nM at human KDR kinase and not above 10 nM on human RET kinase. The GI50 at BAF3-KIF5B-RET cells is more than 100 nM.

Take `CCOc1cc(-c2ccc(N3C4CC5CC3CC(NC(=O)c3ncccc3Cl)(C5)C4)nc2)c2c(C#N)cnn2c1` [Example 136, 3-chloro-N-((1R,3S,5s,7s)-2-(5-(3-cyano-6-ethoxypyrazolo[1,5-a]pyridin-4-yl)pyridin-2-yl)-2-azaadamantan-5-yl)picolinamide]: the IC50 was not above 10 nM in the assay with TT cells (TT), 10 to 50 nM at human KDR kinase and not above 10 nM on human RET kinase. Also, on BAF3-KIF5B-RET cells, the GI50 was not above 10 nM.

Turning to `Cn1cc(-c2cc(-c3ccc(N4C[C@@H]5CN(S(=O)(=O)c6c(F)cccc6Cl)C[C@@H]5C4)nc3)c3c(C#N)cnn3c2)cn1` [Example 11, 4-(6-((3aR,6aS)-5-(2-chloro-6-fluorophenylsulfonyl)hexahydropyrrolo[3,4-c]pyrrol-2(1H)-yl)pyridin-3-yl)-6-(1-methyl-1H-pyrazol-4-yl)pyrazolo[1,5-a]pyridine-3-carbonitrile], the IC50 with TT cells (TT), at human KDR kinase and against human RET kinase was not above 10 nM throughout. Moreover, the GI50 at BAF3-KIF5B-RET cells is not above 10 nM.

For the compound `CC(C)(O)COc1cc(-c2ccc(N3C4CC5CC3CC(NC(=O)c3ncccc3Cl)(C5)C4)nc2)c2c(C#N)cnn2c1` [Example 135, 3-chloro-N-((1R,3S,5s,7s)-2-(5-(3-cyano-6-(2-hydroxy-2-methylpropoxy)pyrazolo[1,5-a]pyridin-4-yl)pyridin-2-yl)-2-azaadamantan-5-yl)picolinainide], the IC50 in the assay on TT cells (TT) is not above 10 nM; on human KDR kinase, 10 to 50 nM; at human RET kinase, not above 10 nM. On BAF3-KIF5B-RET cells, the GI50 is not above 10 nM.

For the compound `Cn1ccc(-c2cc(-c3ccc(N4C[C@@H]5C[C@@](C)(NC(=O)c6ncccc6Cl)C[C@@H]5C4)nc3)c3c(C#N)cnn3c2)n1` [Example 56, 3-chloro-N-((3aR,5s,6aS)-2-(5-(3-cyano-6-(1-methyl-1H-pyrazol-3-yl)pyrazolo[1,5-a]pyridin-4-yl)pyridin-2-yl)-5-methyloctahydro-cyclopenta[c]pyrrol-5-yl)picolinamide], the IC50 with TT cells (TT) was not above 10 nM; on human KDR kinase, 10 to 50 nM; on human RET kinase, not above 10 nM. In addition, the GI50 at BAF3-KIF5B-RET cells is not above 10 nM.

`CC(=O)NC12CC3CC(C1)N(c1ccc(-c4cc(-c5cnn(C)c5)cn5ncc(C#N)c45)cn1)C(C3)C2` [Example 97, N-((1R,3S,5s,7s)-2-(5-(3-cyano-6-(1-methyl-1H-pyrazol-4-yl)pyrazolo[1,5-a]pyridin-4-yl)pyridin-2-yl)-2-azaadamantan-5-yl)acetamide]: the IC50 with TT cells (TT), at human KDR kinase and on human RET kinase was not above 10 nM each time. Also, the GI50 at BAF3-KIF5B-RET cells was not above 10 nM.

With `COc1ccc(CN[C@]2(C)C[C@H]3CN(c4ccc(-c5cc(-c6cnn(C)c6)cn6ncc(C#N)c56)cn4)C[C@H]3C2)cn1` [Example 152, 4-(6-((3aR,5s,6aS)-5-(((6-methoxypyridin-3-yl)methyl)amino)-5-methylhexahydrocyclopenta[c]pyrrol-2(1H)-yl)pyridin-3-yl)-6-(1-methyl-1H-pyrazol-4-yl)pyrazolo[1,5-a]pyridine-3-carbonitrile], the IC50 was 10 to 50 nM against human KDR kinase and not above 10 nM at human RET kinase. For the same compound, the GI50 on BAF3-KIF5B-RET cells was in the range of 50 to 100 nM.
